Measured values: US8906946B2, “TRPM8 receptor antagonists” (Dompe' S.p.A., priority 2011, dated 2014)
pIC50: −log10 of the molar value.

Tests used:
[1] = test system: rhythmic bladder contractions; test: Isovolumetric bladder model, intravesical protocol; assay type: in vivo, rat
Procedure: Female rats were anesthetized with urethane. Ureters were ligated and sectioned. A catheter was inserted through the urinary meatus into the bladder before urethral ligature. Two protocols for testing compounds were used: intravenous (i.v.) or intravesical (i.ves.) administration.
In the second protocol, the bladder was filled first 3 times every 5 min with 100 μL of a solution of solutol/NMP […] containing 0.756 mg of compound (1) or with 100 μL of vehicle, then with 100 μL of saline every 5 min until the occurrence of RBC. A maximal volume of 3 mL was infused. The threshold volume inducing RBC in each group was compared. […] Furthermore, the threshold volume (TV) in the group treated with compound (1) reached 3 mL without RBC occurrence whereas, in the vehicle group, RBC occurred in all rats with a mean volume of 0.7±0.09 ml.

hTRPV1 channels = biological target: T1, hTRPV1 channels (Homo sapiens, UniProt Q8NER1); test: Selectivity analysis, calcium influx assay, hTRPV1 in HEK293 cells; assay type: cell-based
T1 construct: expressed in transfected cells; host or cells: HEK293
Procedure: (§1) The objective of this study was to evaluate the effects in vitro of compound 1 on 3 cloned human channels expressed in HEK293 or CHO cells using the Fluo-8 calcium kit (AAT Bioquest, Inc.), and a Fluorescence Imaging Plate Reader (FLIPR^TETRA™) instrument. The following 3 cloned human channels were evaluated in this study. • 1. Cloned hTRPM8 channels (encoded by the human TRPM8 gene, stably expressed in CHO cells), • 2. Cloned hTRPV1 channels (encoded by the human TRPV1 gene, stably expressed in HEK293 cells), • 3. Cloned hTRPV4 channels (encoded by the human TRPV4 gene, stably expressed in CHO cells).
(§2) The effects of […] (0.001, 0.01, 1, and 10 μM) of compound (1) were evaluated on these three TRP channels (n>3) using the following experimental procedure for each channel tested:
The ability of compound (1) to act as an antagonist of TRPV1 was evaluated with a calcium influx assay. The signal elicited in the presence of the positive control agonist (0.1 μM capsaicin) was set to 100% and the signal in the presence of the antagonist (5 μM ruthenium red) was set to 0.

hTRPV4 channels = biological target: T2, hTRPV4 channels (Homo sapiens, UniProt Q9HBA0); test: Selectivity analysis, calcium influx assay, hTRPV4 in CHO cells; assay type: cell-based
T2 construct: expressed in transfected cells; host or cells: CHO
Procedure: as §1, §2
The ability of compound (1) to act as an antagonist of TRPV4 was evaluated with a calcium influx assay. The signal elicited in the presence of the positive control agonist (10 μM GSK1016790A) was set to 100% and the signal in the presence of the antagonist (5 μM ruthenium red) was set to 0. Values were considered significant if the test article mean was three or more standard deviations away from the positive control agonist mean.

hepatocytes = test: Metabolic stability hepatocytes, human; assay type: in vitro ADME
CYP1A2 = biological target: T3, CYP1A2 (Homo sapiens, UniProt P05177); test: CYP inhibition 1A2; assay type: in vitro ADME; conditions: 1A2, 10 μM
T3 sequence (P05177 1-516): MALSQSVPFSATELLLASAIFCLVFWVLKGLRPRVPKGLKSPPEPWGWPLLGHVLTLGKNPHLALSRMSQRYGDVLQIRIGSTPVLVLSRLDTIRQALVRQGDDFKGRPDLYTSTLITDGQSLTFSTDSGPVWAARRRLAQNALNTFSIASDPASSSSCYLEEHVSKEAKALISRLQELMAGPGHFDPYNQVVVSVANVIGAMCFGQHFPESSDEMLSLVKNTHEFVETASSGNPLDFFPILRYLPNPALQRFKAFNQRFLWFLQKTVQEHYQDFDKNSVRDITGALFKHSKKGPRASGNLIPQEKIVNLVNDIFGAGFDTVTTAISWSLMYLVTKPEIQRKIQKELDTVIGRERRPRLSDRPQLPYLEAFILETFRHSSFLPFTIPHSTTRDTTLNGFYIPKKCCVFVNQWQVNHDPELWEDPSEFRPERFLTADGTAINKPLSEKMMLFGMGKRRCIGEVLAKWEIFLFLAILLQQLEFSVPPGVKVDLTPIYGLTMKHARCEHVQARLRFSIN

CYP2C9 = CYP2C9 (Homo sapiens, UniProt P11712); test: CYP inhibition 2C9; assay type: in vitro ADME; conditions: 2C9, 10 μM
CYP2C19 = CYP2C19 (Homo sapiens, UniProt P33261); test: CYP inhibition 2C19; assay type: in vitro ADME; conditions: 2C19, 10 μM
CYP2D6 = CYP2D6 (Homo sapiens, UniProt P10635); test: CYP inhibition 2D6; assay type: in vitro ADME; conditions: 2D6, 10 μM
Plasma stability, rat = assay type: in vitro ADME
Plasma stability, human = assay type: in vitro ADME
t1/2 i.v. rat = conditions: in vivo, iv
[2] = Plasma Protein Binding, human; assay type: in vitro ADME
human TRPM8 = human TRPM8 (Homo sapiens, UniProt Q7Z2W7); test: Selectivity analysis, calcium influx assay (Fluo-8, FLIPR TETRA), hTRPM8 in CHO cells; assay type: cell-based; set-up: expressed in transfected cells; host or cells: CHO
Procedure: The following 3 cloned human channels were evaluated in this study. • 1. Cloned hTRPM8 channels (encoded by the human TRPM8 gene, stably expressed in CHO cells), • 2. Cloned hTRPV1 channels (encoded by the human TRPV1 gene, stably expressed in HEK293 cells), • 3. Cloned hTRPV4 channels (encoded by the human TRPV4 gene, stably expressed in CHO cells). […] The ability of compound (1) to act as an antagonist of TRPM8 was evaluated with a calcium influx assay. […] Values were considered significant and highlighted in yellow if the test article mean was three or more standard deviations away from the positive control agonist mean.

[3] = CHO, read-out: normalized % inhibition TRPM8

T2 sequence (Q9HBA0 whole entry): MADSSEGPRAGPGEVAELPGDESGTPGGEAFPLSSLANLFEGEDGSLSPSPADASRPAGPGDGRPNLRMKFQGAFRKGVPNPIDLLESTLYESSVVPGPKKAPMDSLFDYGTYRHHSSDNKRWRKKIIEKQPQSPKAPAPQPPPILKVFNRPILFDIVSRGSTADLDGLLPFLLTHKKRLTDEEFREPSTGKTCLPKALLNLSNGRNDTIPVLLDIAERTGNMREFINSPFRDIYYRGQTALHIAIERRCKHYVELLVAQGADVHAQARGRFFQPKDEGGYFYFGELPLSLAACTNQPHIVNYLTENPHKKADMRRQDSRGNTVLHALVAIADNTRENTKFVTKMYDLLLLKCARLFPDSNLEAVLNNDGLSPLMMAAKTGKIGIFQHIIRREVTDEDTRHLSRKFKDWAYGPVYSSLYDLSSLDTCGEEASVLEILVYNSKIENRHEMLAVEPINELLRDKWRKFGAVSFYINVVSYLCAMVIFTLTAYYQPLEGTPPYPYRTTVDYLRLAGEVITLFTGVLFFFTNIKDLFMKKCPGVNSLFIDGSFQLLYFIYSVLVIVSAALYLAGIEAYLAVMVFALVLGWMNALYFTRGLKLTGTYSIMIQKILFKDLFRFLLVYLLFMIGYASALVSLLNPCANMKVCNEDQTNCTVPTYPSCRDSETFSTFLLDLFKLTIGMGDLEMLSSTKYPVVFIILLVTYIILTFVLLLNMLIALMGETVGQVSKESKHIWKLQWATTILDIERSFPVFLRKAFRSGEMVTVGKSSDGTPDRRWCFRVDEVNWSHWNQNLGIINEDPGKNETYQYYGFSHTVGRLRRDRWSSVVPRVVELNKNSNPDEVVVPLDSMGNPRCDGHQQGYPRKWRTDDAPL
T1 sequence (Q8NER1 whole entry): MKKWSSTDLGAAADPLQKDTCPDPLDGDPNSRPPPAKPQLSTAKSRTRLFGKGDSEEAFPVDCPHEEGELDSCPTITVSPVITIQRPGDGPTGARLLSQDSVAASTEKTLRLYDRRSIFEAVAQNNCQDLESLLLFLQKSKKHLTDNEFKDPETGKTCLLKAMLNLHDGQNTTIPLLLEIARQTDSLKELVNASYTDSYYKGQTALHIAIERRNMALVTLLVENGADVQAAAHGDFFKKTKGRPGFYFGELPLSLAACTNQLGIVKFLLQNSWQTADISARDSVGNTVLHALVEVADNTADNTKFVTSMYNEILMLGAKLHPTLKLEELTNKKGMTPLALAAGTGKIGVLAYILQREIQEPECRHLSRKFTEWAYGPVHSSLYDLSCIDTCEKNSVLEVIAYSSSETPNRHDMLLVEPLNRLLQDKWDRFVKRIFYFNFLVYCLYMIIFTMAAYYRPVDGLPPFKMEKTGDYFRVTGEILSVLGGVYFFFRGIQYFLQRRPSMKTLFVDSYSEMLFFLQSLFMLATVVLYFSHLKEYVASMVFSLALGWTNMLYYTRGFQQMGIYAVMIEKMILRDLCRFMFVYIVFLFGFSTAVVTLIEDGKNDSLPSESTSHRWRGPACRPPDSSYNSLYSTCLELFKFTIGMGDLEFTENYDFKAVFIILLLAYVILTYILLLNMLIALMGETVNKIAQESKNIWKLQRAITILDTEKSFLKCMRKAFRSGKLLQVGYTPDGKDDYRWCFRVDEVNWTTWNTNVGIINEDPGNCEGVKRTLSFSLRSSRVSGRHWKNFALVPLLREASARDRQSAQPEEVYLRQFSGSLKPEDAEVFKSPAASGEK
Chain of human TRPM8 (Q7Z2W7 whole entry): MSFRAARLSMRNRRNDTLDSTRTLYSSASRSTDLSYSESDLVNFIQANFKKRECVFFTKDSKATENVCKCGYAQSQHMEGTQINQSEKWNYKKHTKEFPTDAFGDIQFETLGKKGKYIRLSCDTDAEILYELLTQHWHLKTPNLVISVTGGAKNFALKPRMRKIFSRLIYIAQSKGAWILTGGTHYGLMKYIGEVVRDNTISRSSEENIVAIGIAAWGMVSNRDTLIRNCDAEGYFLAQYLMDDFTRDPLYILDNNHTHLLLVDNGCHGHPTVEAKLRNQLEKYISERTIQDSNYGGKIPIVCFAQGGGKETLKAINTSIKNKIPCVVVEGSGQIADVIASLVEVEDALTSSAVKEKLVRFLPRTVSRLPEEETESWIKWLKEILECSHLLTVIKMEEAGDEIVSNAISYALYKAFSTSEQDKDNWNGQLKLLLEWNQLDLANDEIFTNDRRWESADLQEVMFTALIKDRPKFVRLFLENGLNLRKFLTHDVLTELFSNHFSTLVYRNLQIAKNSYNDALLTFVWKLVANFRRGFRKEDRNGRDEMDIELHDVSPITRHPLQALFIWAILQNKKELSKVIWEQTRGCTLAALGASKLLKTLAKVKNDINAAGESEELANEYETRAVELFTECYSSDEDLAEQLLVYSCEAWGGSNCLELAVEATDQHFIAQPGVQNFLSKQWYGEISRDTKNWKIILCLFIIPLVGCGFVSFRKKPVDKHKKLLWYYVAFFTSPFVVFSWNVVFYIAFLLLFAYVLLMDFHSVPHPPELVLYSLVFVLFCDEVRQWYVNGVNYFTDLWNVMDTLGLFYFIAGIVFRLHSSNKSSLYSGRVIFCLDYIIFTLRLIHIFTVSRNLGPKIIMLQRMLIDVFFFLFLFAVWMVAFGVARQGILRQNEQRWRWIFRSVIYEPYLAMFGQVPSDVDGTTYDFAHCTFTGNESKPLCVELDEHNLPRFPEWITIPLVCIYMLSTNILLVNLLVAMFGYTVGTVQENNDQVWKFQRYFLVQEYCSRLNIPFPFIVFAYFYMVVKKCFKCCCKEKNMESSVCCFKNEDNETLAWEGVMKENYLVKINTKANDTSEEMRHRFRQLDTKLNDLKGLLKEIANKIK
Chain of CYP2D6 (P10635 whole entry): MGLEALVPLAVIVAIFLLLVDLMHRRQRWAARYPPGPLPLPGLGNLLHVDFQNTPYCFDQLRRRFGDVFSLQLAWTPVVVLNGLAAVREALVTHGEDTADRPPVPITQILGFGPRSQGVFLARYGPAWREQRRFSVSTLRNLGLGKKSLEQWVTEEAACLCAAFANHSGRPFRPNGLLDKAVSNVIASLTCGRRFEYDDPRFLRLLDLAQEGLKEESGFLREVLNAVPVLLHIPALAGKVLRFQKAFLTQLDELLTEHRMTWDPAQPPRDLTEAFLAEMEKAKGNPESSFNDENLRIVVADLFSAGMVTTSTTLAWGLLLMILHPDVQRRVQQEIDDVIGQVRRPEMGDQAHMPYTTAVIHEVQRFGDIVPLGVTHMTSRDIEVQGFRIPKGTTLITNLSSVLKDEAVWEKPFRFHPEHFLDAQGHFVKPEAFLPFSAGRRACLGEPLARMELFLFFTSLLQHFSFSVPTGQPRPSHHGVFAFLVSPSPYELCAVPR
Chain of CYP2C9 (P11712 whole entry): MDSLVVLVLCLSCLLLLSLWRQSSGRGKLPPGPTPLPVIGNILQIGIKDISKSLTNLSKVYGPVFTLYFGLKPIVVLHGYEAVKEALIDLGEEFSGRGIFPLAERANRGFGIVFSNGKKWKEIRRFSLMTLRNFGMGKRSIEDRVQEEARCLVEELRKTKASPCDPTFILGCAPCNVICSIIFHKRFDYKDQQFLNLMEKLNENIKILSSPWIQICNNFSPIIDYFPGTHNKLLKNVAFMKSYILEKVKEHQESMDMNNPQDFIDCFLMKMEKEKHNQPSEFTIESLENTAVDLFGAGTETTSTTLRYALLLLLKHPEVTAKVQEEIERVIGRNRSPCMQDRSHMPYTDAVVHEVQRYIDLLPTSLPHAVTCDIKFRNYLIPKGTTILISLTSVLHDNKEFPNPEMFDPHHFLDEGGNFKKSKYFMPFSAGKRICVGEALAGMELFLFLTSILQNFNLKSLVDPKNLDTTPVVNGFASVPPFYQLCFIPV
Chain of CYP2C19 (P33261 whole entry): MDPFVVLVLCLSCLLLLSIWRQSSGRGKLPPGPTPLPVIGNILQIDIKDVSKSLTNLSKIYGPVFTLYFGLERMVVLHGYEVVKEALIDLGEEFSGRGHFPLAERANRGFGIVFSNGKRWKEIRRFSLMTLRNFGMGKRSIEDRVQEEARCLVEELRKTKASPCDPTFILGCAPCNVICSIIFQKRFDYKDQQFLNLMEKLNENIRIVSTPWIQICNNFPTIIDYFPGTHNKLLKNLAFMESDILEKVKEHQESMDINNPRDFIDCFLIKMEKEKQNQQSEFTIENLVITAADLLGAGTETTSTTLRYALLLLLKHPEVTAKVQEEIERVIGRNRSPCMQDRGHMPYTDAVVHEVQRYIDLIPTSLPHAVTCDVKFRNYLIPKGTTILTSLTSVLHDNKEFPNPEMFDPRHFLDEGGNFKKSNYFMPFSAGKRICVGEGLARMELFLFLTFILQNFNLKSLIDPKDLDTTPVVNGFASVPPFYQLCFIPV

Cl.Clc1c(OCCNCc2ccco2)ccc2ccccc12 [Compound 1, 2-[(1-chloronaphthalen-2-yl)oxy]-N-(furan-2-ylmethyl)ethanaminium chloride]
effect on Amplitude of Micturition (AM) [1]: did not change AM
effect on rhythmic bladder contractions (RBC) ([1]; 3 x 100 μL containing 0.756 mg): completely abolished RBC
threshold volume (TV) inducing RBC ([1]; maximal volume infused 3 mL, no RBC occurrence): > 3 mL
inhibition at 0.001 µM (hTRPV1 channels; HEK293, 0.001 μM, 0.1 μM capsaicin = 100%, 5 μM ruthenium red = 0, read-out: normalized % inhibition TRPV1): -9.14%
inhibition at 0.01 µM (hTRPV1 channels; HEK293, 0.01 μM, 0.1 μM capsaicin, read-out: normalized % inhibition TRPV1): 5.29%
inhibition at 0.1 µM (hTRPV1 channels; HEK293, 0.1 μM, 0.1 μM capsaicin, read-out: normalized % inhibition TRPV1): 2.12%
inhibition at 1 µM (hTRPV1 channels; HEK293, 1 μM, 0.1 μM capsaicin, read-out: normalized % inhibition TRPV1): 5.37%
inhibition at 10 µM (hTRPV1 channels; HEK293, 10 μM, 0.1 μM capsaicin, read-out: normalized % inhibition TRPV1): 4.9%
inhibition of TRPV1 ion channel (in words) (hTRPV1 channels; all the assay concentrations): do not show any relevant inhibition
inhibition at 0.001 µM (hTRPV4 channels; 0.001 μM, 10 μM GSK1016790A = 100%, 5 μM ruthenium red = 0, read-out: normalized % inhibition TRPV4): 13.3%
inhibition at 0.01 µM (hTRPV4 channels; 0.01 μM, 10 μM GSK1016790A, read-out: normalized % inhibition TRPV4): 9.03%
inhibition at 0.1 µM (hTRPV4 channels; 0.1 μM, 10 μM GSK1016790A, read-out: normalized % inhibition TRPV4): 12.2%
inhibition at 1 µM (hTRPV4 channels; 1 μM, 10 μM GSK1016790A, read-out: normalized % inhibition TRPV4): 1.97%
inhibition at 10 µM (hTRPV4 channels; 10 μM, 10 μM GSK1016790A, read-out: normalized % inhibition TRPV4): 85.7%
Metabolic stability hepatocytes (% remaining at 120 min @1 μM) (hepatocytes): 2.6%
inhibition at 10 µM (CYP1A2): 98.8%
inhibition at 10 µM (CYP2C9): 63.1%
inhibition at 10 µM (CYP2C19): 55.3%
inhibition at 10 µM (CYP2D6): 100%
Plasma stability (% remaining) @10 μM (Plasma stability, rat): 87%
Plasma stability (% remaining) @10 μM (Plasma stability, human): 96%
half-life (t1/2 i.v. rat): 1.05 h
fraction unbound at 10 μM [2]: 0.02
inhibition at 0.001 µM (human TRPM8; [3]): -25.2%
inhibition at 0.01 µM (human TRPM8; [3]): 21.4%
inhibition at 0.1 µM (human TRPM8; [3]): 95.6%
inhibition at 1 µM (human TRPM8; [3]): 95.6%
inhibition at 10 µM (human TRPM8; [3]): 96.4%
pIC50 (human TRPM8; read-out: IC50 (TRPM8)): 7.15
